Tests used:
[1] = tested on: Sprague Dawley rats; assay: 2-week IV once-a-day toxicity study with 2-week recovery in Sprague Dawley rats
Method: A subset from each dose group was maintained for 14 days after the last dose to evaluate delayed toxicity and/or recovery. All animals were observed twice daily for mortality and signs of pain or distress. Detailed clinical observations, body weight measurements and food consumption were conducted weekly; post dose observations (30 min post dose) were conducted daily or as required. Clinical pathology evaluations (hematology, coagulation parameters, and serum chemistry) were performed using samples collected on the day of scheduled sacrifice (main and recovery). At the end of the 14-day dosing period, and at the end of the 14-day recovery period, necropsies were performed on all animals, selected organs were weighed, and tissues were examined macroscopically and microscopically. Toxicokinetic parameters were evaluated on Day 1 and 14.

[2] = target: CYP 1A2 (Homo sapiens, UniProt P05177); conditions: read-out: CYP inhibition IC50; CYP 1A2, substrate Phenacetin; ND = Not Detected
[3] = target: CYP 2B6 (Homo sapiens, UniProt P20813)
[4] = tested on: CYP 2B6
[5] = S9 microsome stability, CD-1 mouse; conditions: text statement for rodent (mouse and rat) S9
[6] = tested on: S. aureus NRS384; assay: S. aureus broth killing (growth inhibition) assay; conditions: S. aureus NRS384, TSB, 24 h, OD600
Source text: (§1) To test the potency of rifamycin analogs of the disclosure in vitro, a broth growth inhibition assay was developed.

[7] = tested on: Salmonella typhimurium ATCC 14028; assay: S. typhimurium broth killing (growth inhibition) assay; conditions: Salmonella typhimurium ATCC 14028, TSB, 24 h
Source text: as §1

[8] = combination with vancomycin, end of treatment
[9] = end of treatment period, compound alone
[10] = males, combination with vancomycin (1 + 110 mg/kg/day), end of treatment, considered vancomycin-related

Sequence of CYP 2B6 (Homo sapiens, UniProt P20813) (P20813 whole entry): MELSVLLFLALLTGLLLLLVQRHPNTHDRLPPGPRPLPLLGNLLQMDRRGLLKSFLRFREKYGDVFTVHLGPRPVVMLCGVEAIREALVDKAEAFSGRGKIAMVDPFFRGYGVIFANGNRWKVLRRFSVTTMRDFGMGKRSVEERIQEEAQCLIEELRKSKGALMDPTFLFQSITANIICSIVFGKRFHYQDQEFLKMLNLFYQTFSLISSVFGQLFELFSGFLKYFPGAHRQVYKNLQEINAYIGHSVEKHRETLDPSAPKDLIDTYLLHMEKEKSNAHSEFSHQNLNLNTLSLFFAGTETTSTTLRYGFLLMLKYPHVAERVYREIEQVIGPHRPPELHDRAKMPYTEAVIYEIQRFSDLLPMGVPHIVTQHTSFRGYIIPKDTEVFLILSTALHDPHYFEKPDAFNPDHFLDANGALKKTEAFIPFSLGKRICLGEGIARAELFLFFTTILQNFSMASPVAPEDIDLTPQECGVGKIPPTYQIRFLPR
Sequence of CYP 1A2 (P05177 whole entry): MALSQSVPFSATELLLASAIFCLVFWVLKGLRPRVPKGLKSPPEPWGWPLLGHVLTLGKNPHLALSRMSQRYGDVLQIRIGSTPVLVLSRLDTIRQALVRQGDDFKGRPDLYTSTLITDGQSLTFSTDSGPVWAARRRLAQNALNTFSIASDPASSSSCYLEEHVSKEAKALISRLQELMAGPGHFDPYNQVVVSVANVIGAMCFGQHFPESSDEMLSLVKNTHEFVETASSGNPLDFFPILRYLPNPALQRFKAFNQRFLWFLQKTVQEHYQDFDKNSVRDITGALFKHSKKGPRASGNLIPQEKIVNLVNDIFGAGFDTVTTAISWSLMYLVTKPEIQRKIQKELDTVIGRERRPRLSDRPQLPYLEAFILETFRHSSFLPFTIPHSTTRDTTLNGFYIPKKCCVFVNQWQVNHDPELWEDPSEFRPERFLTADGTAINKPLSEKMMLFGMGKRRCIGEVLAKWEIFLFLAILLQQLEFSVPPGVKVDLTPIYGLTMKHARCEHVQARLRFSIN

In the case of `COC1C=COC2(C)Oc3c(C)c(O)c4c(=O)c(c5oc6cc(OCCN(C)C)ccc6nc-5c4c3C2=O)NC(=O)C(C)=CC=CC(C)C(O)C(C)C(O)C(C)C(OC(C)=O)C1C` (stereo not shown) [Compound 4], the albumin concentration [1, 8] is reported as “minimal decrease”, the glucose concentration [1, 8] is reported as “minimal increase” and the urea nitrogen [1, 8] is reported as “minimal increase”. The “dose with apparent minimal increase in alkaline phosphatase in males” value ([1]; end of recovery period) was at least 1 mg/kg/day, the “dose with increase in glucose” value ([1]; end of recovery period) was at least 0.1 mg/kg/day and the “dose with minimal to mild decreases in globulin in males” value ([1]; end of recovery period) was at least 0.1 mg/kg/day. For the same compound, the “dose with minimal increases in phosphorus” value ([1]; end of treatment period) was at least 0.1 mg/kg/day, the “dose with minimal increases in reticulocyte counts” value ([1]; end of treatment period) was at least 0.1 mg/kg/day and the “dose with minimal decrease in albumin concentration” value [1, 9] was 10 mg/kg/day. The “dose with minimal increase in glucose concentration” value [1, 9] was 1 mg/kg/day, the neutrophils counts [1, 10] was “mild decreases” and the platelet counts [1, 10] was “minimal increase”. The “red cell mass parameters (red blood cells, hemoglobin, hematocrit)” value [1, 10] was “minimal decreases”, the calcium ([1]; males, combination with vancomycin, after 14-day recovery) was “minimal decrease” and the globulin ([1]; males, combination with vancomycin, end of recovery period) was “minimal to mild decreases”. The fibrinogen ([1]; males, combination with vancomycin, end of treatment, attributed to vancomycin) was “minimal increases”, the tolerability ([1]; rat, IV QD 14 days, 0.1-10 mg/kg/day) was “well-tolerated” and the “body weight, body weight gains, food consumption changes” value ([1]; rat, IV QD 14 days, alone or in combination with vancomycin) was “no body weight, body weight gains, or food consumption changes”. The “no-observed-adverse-effect level (NOAEL)” value ([1]; rat, IV QD 14 days, highest dose administered) was 10 mg/kg/day, the IC50 [2] was 10.9 µM and the IC50 [3] was 11.6 µM. For the same compound, the “Fold Induction (Enzyme Activity)” value [4] was 0.0131, the “half-lives, rodent S9 microsomal stability” value [5] was “greater than 120 min” and the “Broth MIC” value [6] was 0.00391 µM. For the same compound, the “Broth MIC” value [7] was 4 µM.

— article PMC10766536 (The Journal of Antibiotics, 2023)
